# Experiments:
# human CYP3A4 = molecular target: T1, human CYP3A4 (Homo sapiens, UniProt P08684); test: Inhibitory effect on CYP3A4 (Luciferin-IPA); format: in vitro ADME; conditions: test compound 10 μM, 30-minutes pre-incubation, Luciferin-IPA 3 μM
# T1 construct: purchased BD Biosciences
# Protocol: Inhibitory Effect on CYP3A4
# The dimethyl sulfoxide (DMSO) solution of the test compound with a concentration 1000 times higher than the evaluation concentration was prepared, and a reaction solution was prepared by diluting the solution. Enzyme reaction was performed by incubating in a potassium phosphate buffer solution (pH 7.4) containing 1 μM to 10 μM test compound, 3.2 mM magnesium chloride, 0.2 pmol human CYP3A4 (BD Biosciences), 0.5 mM reduced nicotinamide adenine dinucleotide phosphate (NADPH) and 3 μM Luciferin-IPA (Promega) at 37° C. for 10 minutes. The volume of the reaction solution was 50 μL/well. The 30-minutes pre-incubation group was incubated at 37° C. for 30 minutes before adding the substrate, the Luciferin-IPA solution (12.5 μL/well). At the end of the enzyme reaction, 50 μL/well of a Luciferin detection reagent (Promega) was added to the wells, and the plate was left at room temperature for 20 minutes. Then, the emission intensities were measured with Infinite M1000 (TECAN), and the enzyme activities (%) relative to the value of the group to which the test compound was not added. As a comparative example, aprepitant, which is an NK1 receptor antagonist, was tested in the same manner.
# Test was measured by the above test method, and the results are shown in Table 9 when the concentration of the test compound was 10 μM. In the table, Ex. No. means the Example number, and Pre-incubation (30 min) (%) means the enzyme activities (%) of the 30-minutes pre-incubation groups using the test compounds.
# human NK1 receptor [1] = molecular target: T2, human NK1 receptor (Homo sapiens, UniProt P25103); test: Inhibitory effect on human NK1 receptor (substance P-induced increase in intracellular calcium concentration); format: cell-based; conditions: HEK-293T; substance P 0.1 μM; compound 1 μM; human NK1 receptor-expressing 293T cells; vehicle = 100%; read-out: SPRR (%) (Substance P-Response Remaining, intracellular calcium concentration)
# T2 construct: expressed in transfected cells; host or cells: 293T cells (RIKEN), transient transfection with pcDNA3.1(-) plasmid
# T2 sequence (P25103 whole entry): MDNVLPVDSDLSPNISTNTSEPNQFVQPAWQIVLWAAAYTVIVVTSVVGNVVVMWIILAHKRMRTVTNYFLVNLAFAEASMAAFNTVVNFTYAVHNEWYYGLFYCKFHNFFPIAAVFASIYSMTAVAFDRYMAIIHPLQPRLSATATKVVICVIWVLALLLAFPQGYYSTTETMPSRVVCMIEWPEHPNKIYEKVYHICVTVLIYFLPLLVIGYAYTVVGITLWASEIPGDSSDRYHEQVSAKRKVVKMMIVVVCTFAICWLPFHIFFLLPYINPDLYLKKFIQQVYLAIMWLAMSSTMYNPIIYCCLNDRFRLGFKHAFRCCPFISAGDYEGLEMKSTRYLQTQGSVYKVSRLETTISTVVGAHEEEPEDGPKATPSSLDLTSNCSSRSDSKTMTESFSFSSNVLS
# Protocol: Inhibitory Effect on Human NK1 Receptor
# (1) Preparation of Human NK1 Receptor-Expressing Cells
# Human NK1 receptor-expressing cells were prepared by the same methods as those described in 2-3 and 2-4 of Test Example 1.
# (2) Study on Inhibitory Effect on Increase in Intracellular Calcium Concentration
# The human NK1 receptor-expressing cells were washed with 300 μL/well of a washing solution (20 mM HEPES/Hanks Balanced Salt Solution (HBSS) pH7.3). A fluorescent calcium indicator (Fluo-4 Direct Calcium Assay Kit, Life Technologies, containing 0.42 mM probenecid and 0.1% bovine serum albumin, prepared according to the protocol of the product) was added to the wells at 150 μL/well, and the plate was incubated at 37° C. for 30 minutes in an incubator. Then, DMSO solutions of a test compound, which were prepared at an 80-time higher concentration using 100% dimethyl sulfoxide (DMSO), were added to the wells at 2.5 μL/well (final concentrations of 0.1, 1 and 10 μM), and the solutions were mixed. Then, the plate was further incubated at 37° C. for 30 minutes in an incubator. After 30 minutes, the intracellular calcium concentrations were measured immediately.
# The intracellular calcium concentrations were each measured as a fluorescent signal using FDSS® 7000 (Hamamatsu Photonics). A substance P (Peptide Institute, Inc.) solution which was prepared at 0.4 μM or 4 μM using an assay buffer (20 mM HEPES/Hanks Balanced Salt Solution (HBSS) pH 7.3 containing 0.1% bovine serum albumin) was added automatically to each well at 50 μL/well (final concentration of 0.1 or 1 μM) 10 seconds after starting reading, and the fluorescent signal was measured up to 120 seconds.
# The intracellular calcium concentration (%) of the cells to which a test compound was added was calculated by the equation below, where the fluorescent signal of the group to which the vehicle (DMSO) was added was regarded as 100%, and the fluorescent signal before the addition of substance P was regarded as 0%. Intracellular calcium concentration (%)=(Fluorescent signal of test compound addition group)/(Fluorescent signal of vehicle addition group)×100
# The intracellular calcium concentration (%) calculated was regarded as the remaining agonist activity of substance P (Substance P-Response Remaining: SPRR). In the table, Ex. No. means the Example number. SPRR (%) means the value obtained when the concentration of substance P was 0.1 μM and the concentration of the compound was 1 μM.
# human NK1 receptor [2] = molecular target: T2, human NK1 receptor; test: Affinity for human NK1 receptor (125I-substance P receptor binding test, membrane fraction); conditions: membrane fraction of human NK1 receptor-expressing 293T cells, room temperature 60 minutes, read-out: pIC50 (inverse logarithm of the concentration required for 50% inhibition of 125I-substance P binding) (converted)
# Protocol: Affinity for Human NK1 Receptor
# (3) Measurement of Binding Affinity to Human NK1 Receptor
# (3-1) Preparation of Membrane Fraction from Human NK1 Receptor-Expressing Cells
# Human NK1 receptor-expressing cells were prepared in a 175 cm^2 culture flask (Nippon Becton Dickinson). The formation of a complex of the human NK1 receptor expression plasmid and Lipofectamine 2000 was performed by calculating the culture area ratio and increasing the scale of the method described in the above 2-4 by the ratio. The human NK1 receptor-expressing cells were collected in a buffer solution for the membrane fraction preparation (50 mM Tris (Wako Pure Chemical), 120 mM sodium chloride (Wako Pure Chemical Industries), 5 mM potassium chloride (Wako Pure Chemical Industries), 1 mM ethylenediaminetetraacetic acid (Sigma), 0.002 mg/mL chymostatin (Peptide Institute), 0.04 mg/bacitracin (Wako Pure Chemical Industries), 0.005 mg/mL phosphoramidon (Peptide Institute) and 0.5 mM phenylmethylsulfonyl fluoride (Wako Pure Chemical Industries), pH7.4) and centrifuged at 1,880 g for 10 minutes, and the cell sediment was suspended in the buffer solution for the membrane fraction preparation. After freezing and thawing the cells once, the cells were homogenized using a Dounce-type homogenizer (cooled on ice, 1000 rpm, 20 times). The homogenized cell suspension was centrifuged at 20,000 rpm for 10 minutes, and the supernatant was removed to obtain cell sediment. The cell sediment was suspended again in the buffer solution for the membrane fraction preparation and homogenized using a Dounce-type homogenizer (cooled on ice, 1000 rpm, 30 times). The cell suspension was centrifuged at 20,000 rpm for 10 minutes, and the supernatant was removed to obtain cell sediment. The same homogenization and centrifugation were repeated again, and final cell sediment was obtained. The final cell sediment was suspended in a buffer solution for the receptor binding test (50 mM Tris (Wako Pure Chemical Industries), 3 mM manganese chloride (Wako Pure Chemical Industries), 0.002 mg/mL chymostatin (Peptide Institute), 0.04 mg/bacitracin (Wako Pure Chemical Industries) and 0.02% bovine serum albumin (Sigma), pH 7.4), and the protein concentration was measured using BCA Protein Assay Kit (Pierce).
# (3-2) Receptor Binding Test
# The buffer solution for the receptor binding test was dispensed to the wells of a 96-well assay plate (Greiner) at 22.5 μL/well. DMSO solutions of a test compound, which were prepared at an 80-time higher concentration using 100% dimethyl sulfoxide (DMSO), were added to the wells at 2.5 μL/well (final concentrations of 1 nM to 100 nM), and the solutions were mixed. As a radiolabeled ligand, ^125I-substance P (Substance P, [^125I]Tyr^8-, PerkinElmer) was used. ^125I-substance P was diluted with the buffer solution for the receptor binding test to a concentration resulting in […] and added to the 96-well assay plate, and the solutions were mixed. The membrane fraction prepared from the human NK1 receptor-expressing cells was diluted with the buffer solution for the receptor binding test to a concentration resulting in 8 to 10 μg/well, suspended until the suspension became in such a homogenous state that the suspension could flow through a 27G injection needle smoothly and then added to the 96-well assay plate at 150 μL/well. Then, the plate was incubated at room temperature for 60 minutes while shaking the plate. […]
# T1 sequence (P08684 whole entry): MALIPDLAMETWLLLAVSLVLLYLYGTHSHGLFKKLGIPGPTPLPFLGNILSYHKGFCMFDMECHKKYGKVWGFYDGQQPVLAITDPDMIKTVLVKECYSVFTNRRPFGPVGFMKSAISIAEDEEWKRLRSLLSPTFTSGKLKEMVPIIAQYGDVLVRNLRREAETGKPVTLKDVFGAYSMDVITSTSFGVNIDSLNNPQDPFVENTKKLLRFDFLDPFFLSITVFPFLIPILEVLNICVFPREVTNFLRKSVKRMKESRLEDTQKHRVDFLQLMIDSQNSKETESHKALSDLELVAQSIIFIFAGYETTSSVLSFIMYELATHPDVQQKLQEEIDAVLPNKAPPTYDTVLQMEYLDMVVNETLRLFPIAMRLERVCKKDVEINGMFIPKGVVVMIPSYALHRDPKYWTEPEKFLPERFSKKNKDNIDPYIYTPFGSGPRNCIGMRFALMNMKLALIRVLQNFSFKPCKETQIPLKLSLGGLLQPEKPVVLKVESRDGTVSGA
SMILES,Preincubation (30 min) (%) (enzyme activities relative to group without test compound) (human CYP3A4),remaining activity at 1 µM (human NK1 receptor [1]) [%],IC50 (human NK1 receptor [2]) [nM]
"Cc1cc(F)ccc1[C@H]1CN(C[C@H]2CC[C@@H](CC(=O)O)CC2)CC[C@@H]1C(=O)N(C)[C@@H](C)c1cc(C(F)(F)F)cc(C(F)(F)F)c1 [Example 13, cis-{4-[(3S,4S)-4-{[(S)-1-(3,5-Bistrifluoromethylphenyl)ethyl]methylcarbamoyl}-3-(4-fluoro-2-methylphenyl)piperidin-1-ylmethyl]cyclohexyl}acetic acid]",18,4.1,0.646
"Cc1cc(F)ccc1[C@H]1CN(C[C@H]2CC[C@H](CC(=O)O)CC2)CC[C@@H]1C(=O)N(C)[C@@H](C)c1cc(C(F)(F)F)cc(C(F)(F)F)c1 [Example 14, trans-{4-[(3 S,4S)-4-{[(S)-1-(3,5-Bistrifluoromethylphenyl)ethyl]methylcarbamoyl}-3-(4-fluoro-2-methylphenyl)piperidin-1-ylmethyl]cyclohexyl}lacetic acid]",15,14,1.35

# — patent US10399949B2, “NK1 receptor antagonist” (KISSEI PHARMACEUTICAL CO., LTD., priority 2015, dated 2019)
